Measurements from US10344019B2 (priority 2010, dated 2019).

How the values were obtained:
Assay type in all cases: cell-based
[1] = system: HCV 2a Rluc cells (NS5A chimeric genotype 2a JFH-1 replicon with genotype 2a J6 strain NS5A gene, M31 present); assay: HCV replicon reporter assay, genotype 2a J6 (M31 present); conditions: Hepatitis C virus, read-out: 2a J6
Experimental: Evaluation of cell-based anti-HCV activity: Antiviral potency (EC50) was determined using a Renilla luciferase (RLuc)-based HCV replicon reporter assay. To perform the assay for genotype 1 and 2a JFH-1, HCV 1b RLuc cells (harboring a dicistronic genotype 1b Con1 replicon that encodes a RLuc reporter), or HCV 1a RLuc cells (harboring a dicistronic genotype 1a H77 replicon that encodes a RLuc reporter), or HCV 2a JFH-1 Rluc cells (harboring a dicistronic genotype 2a JFH-1 replicon that encodes a RLuc reporter) were dispensed into 384-well plates. To perform the assay for genotype 2a (with M31 present) or 2b, HCV 2a Rluc or 2b Rluc cells (both with M31 present) harboring a dicistronic NS5A chimeric genotype 2a JFH-1 replicon that encodes a RLuc reporter and either genotype 2a J6 strain NS5A gene or genotype 2b MD2b-1 NS5A gene (based on Los Alamos HCV database isolates, both with M31 present) respectively, were dispensed into 384-well plates. To perform the assay for genotype 3 and 4, HCV 3a RLuc or 4a Rluc cells harboring a dicistronic NS5A chimeric genotype 1b Con1 replicon that encodes a RLuc reporter and either a consensus genotype 3a NS5A gene or genotype 4a NS5A gene (based on Los Alamos HCV database isolates) respectively, were dispensed into 384-well plates. Compounds were re-suspended in DMSO at a concentration of 10 mM and serially diluted in DMSO either manually or using an automated pipeting instrument. Serially diluted compounds were mixed with cell culture media and added to the seeded cells. […] 72 hours later, cells were lysed and Renilla luciferase activity quantified as recommended by the manufacturer (Promega-Madison, Wis.). Non-linear regression was performed to calculate EC50 values.

[2] = system: HCV 1b RLuc cells (dicistronic genotype 1b Con1 replicon, RLuc reporter); assay: microbe, parasite or virus in culture; conditions: Hepatitis C virus, read-out: 1b (nM)
In short: (§1)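 Replicon cells stably carrying the listed RLuc-encoding dicistronic replicons were seeded and treated with DMSO serial dilutions of compound (10 mM stocks) diluted into culture medium. After 72 h, cells were lysed and Renilla luciferase activity measured. EC50 was derived by non-linear regression.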

[3] = system: HCV 4a Rluc cells (NS5A chimeric genotype 1b Con1 replicon with genotype 4a NS5A gene); assay: microbe, parasite or virus in culture; conditions: Hepatitis C virus, read-out: 4a
In short: as §1

[4] = system: HCV 2a JFH-1 Rluc cells (dicistronic genotype 2a JFH-1 replicon, RLuc reporter); assay: microbe, parasite or virus in culture; conditions: Hepatitis C virus, genotype 2a JFH-1 RLuc replicon; read-out: 2a JFH
In short: as §1

[5] = system: HCV 2b Rluc cells (NS5A chimeric genotype 2a JFH-1 replicon with genotype 2b MD2b-1 NS5A gene, M31 present); assay: microbe, parasite or virus in culture; conditions: Hepatitis C virus, read-out: 2b
In short: as §1

[6] = system: HCV 1a RLuc cells (dicistronic genotype 1a H77 replicon, RLuc reporter); assay: microbe, parasite or virus in culture; conditions: Hepatitis C virus, genotype 1a H77 RLuc replicon; read-out: 1a
In short: as §1

[7] = system: HCV 3a RLuc cells (NS5A chimeric genotype 1b Con1 replicon with consensus genotype 3a NS5A gene); assay: microbe, parasite or virus in culture; conditions: Hepatitis C virus, read-out: 3a, genotype 3a NS5A chimeric replicon
In short: as §1

| SMILES | EC50 [1] | EC50 [2] | EC50 [3] | EC50 [4] | EC50 [5] | EC50 [6] | EC50 [7] |
| --- | --- | --- | --- | --- | --- | --- | --- |
| COC[C@H]1C[C@@H](c2ncc(-c3ccc(-c4ccc(-c5cnc([C@@H]6C[C@H]7C[C@H]7N6C(=O)[C@H](NC(=O)C6CC6)c6ccccc6)[nH]5)cc4)cc3)[nH]2)N(C(=O)[C@@H](NC(=O)OC)C(C)C)C1 [Example 519] | 0.001 to 0.999 nM | 0.01 nM | 0.001 to 0.99 nM | 0.001 to 0.999 nM | 0.001 to 0.999 nM | 0.001 to 0.999 nM |  |
| COC(=O)N[C@H](C(=O)N1CCC[C@H]1c1ncc(-c2cc3c4c(c2)OCc2cc(-c5cnc([C@@H]6CCCN6C(=O)[C@H](NC(=O)C6CC6)c6ccccc6)[nH]5)cc(c2-4)OC3)[nH]1)C(C)C [Example 520] | 0.001 to 0.999 nM | 0.033 nM | 0.001 to 0.99 nM | 0.001 to 0.999 nM | 0.001 to 0.999 nM | 0.001 to 0.999 nM |  |
| COC(=O)N[C@H](C(=O)N1CCC[C@H]1c1ncc(-c2cc3c4c(c2)OCc2cc(-c5cnc([C@@H]6CCCN6C(=O)[C@H](NC(=O)C6CCC6)c6ccccc6)[nH]5)cc(c2-4)OC3)[nH]1)C(C)C [Example 521] | 0.001 to 0.999 nM | 0.028 nM | 0.001 to 0.99 nM | 0.001 to 0.999 nM | 0.001 to 0.999 nM | 0.001 to 0.999 nM |  |
| COC(=O)N[C@H](C(=O)N1CCC[C@H]1c1ncc(-c2cc3c4c(c2)OCc2cc(-c5cnc([C@@H]6CCCN6C(=O)[C@H](NC(=O)c6ccccn6)c6ccccc6)[nH]5)cc(c2-4)OC3)[nH]1)C(C)C [Example 522] | > 44 nM | 0.023 nM | 0.001 to 0.99 nM | 0.001 to 0.999 nM | 0.001 to 0.999 nM | 0.001 to 0.999 nM |  |
| COC[C@H]1C[C@@H](c2nc3ccc4cc(-c5ccc(-c6[nH]c([C@@H]7CCCN7C(=O)[C@@H](NC(=O)OC)C(C)C)nc6C)cc5)ccc4c3[nH]2)N(C(=O)[C@@H](NC(=O)OC)C(C)C)C1 [Example 524] | > 44 nM | 0.02 nM | 0.001 to 0.99 nM | 0.001 to 0.999 nM | 1 to 44 nM | 0.001 to 0.999 nM |  |
| COC(=O)N[C@H](C(=O)N1CCC[C@H]1c1nc2ccc3cc(-c4ccc5c(ccc6nc([C@@H]7C[C@H](COC(F)F)CN7C(=O)[C@H](NC(=O)OC)c7ccccc7)[nH]c65)c4)ccc3c2[nH]1)C(C)C [Example 528] | 0.001 to 0.999 nM | 0.01 nM | 0.001 to 0.99 nM | 0.001 to 0.999 nM | 0.001 to 0.999 nM | 0.001 to 0.999 nM |  |
| CC[C@H](C)[C@H](NC(=O)OC)C(=O)N1[C@@H]2C[C@@H]2C[C@H]1c1nc2ccc3cc(-c4ccc5c(ccc6nc([C@@H]7C[C@H](COC)CN7C(=O)[C@H](NC(=O)OC)c7ccccc7)[nH]c65)c4)ccc3c2[nH]1 [Example 529] | 0.001 to 0.999 nM | 0.013 nM | 0.001 to 0.99 nM | 0.001 to 0.999 nM | 0.001 to 0.999 nM | 0.001 to 0.999 nM |  |
| COC[C@H]1C[C@@H](c2nc3ccc4cc5c(cc4c3[nH]2)OCc2cc(-c3ccc4nc([C@@H]6CCCN6C(=O)[C@@H](NC(=O)OC)C(C)C)[nH]c4c3)ccc2-5)N(C(=O)[C@H](NC(=O)OC)c2ccccc2)C1 [Example 556] | > 44 nM |  | 0.001 to 0.99 nM | 0.001 to 0.999 nM | > 44 nM | 0.001 to 0.999 nM |  |
| COC(=O)N[C@H](C(=O)N1[C@@H](C)CC[C@H]1c1ncc(-c2ccc3c(c2)COc2cc4c(ccc5nc([C@@H]6CCCN6C(=O)[C@H](N)c6ccccc6)[nH]c54)cc2-3)[nH]1)C(C)C [Example 604] | 0.001 to 0.999 nM | 0.02 nM |  | 0.001 to 0.999 nM | 0.001 to 0.999 nM | 0.001 to 0.999 nM |  |
| CC[C@H](C)[C@H](NC(=O)OC)C(=O)N1C[C@@H](COC)C[C@H]1c1ncc(-c2ccc3c(c2)COc2cc4c(ccc5nc([C@@H]6CC[C@H](C)N6C(=O)[C@@H](NC(=O)OC)C(C)C)[nH]c54)cc2-3)[nH]1 [Example 619] | 0.001 to 0.999 nM | 0.007 nM |  | 0.001 to 0.999 nM | 0.001 to 0.999 nM | 0.001 to 0.999 nM |  |
| COC[C@H]1C[C@@H](c2nc3ccc4cc5c(cc4c3[nH]2)OCc2cc(-c3cnc([C@@H]4C[C@H](C)CN4C(=O)C(NC(=O)OC)[C@H](C)OC)[nH]3)ccc2-5)N(C(=O)[C@@H](NC(=O)OC)[C@H](C)OC)C1 (stereo partly drawn) [Example 620] | 0.001 to 0.999 nM | 0.081 nM |  | 0.001 to 0.999 nM | 0.001 to 0.999 nM | 0.001 to 0.999 nM |  |
| COC(=O)NC(C(=O)N1C[C@@H](C)C[C@H]1c1nc2ccc3cc4c(cc3c2[nH]1)OCc1cc(-c2cnc([C@@H]3CC[C@H](C)N3C(=O)[C@@H](NC(=O)OC)C(C)C)[nH]2)ccc1-4)[C@H](C)OC (stereo partly drawn) [Example 621] | 0.001 to 0.999 nM | 0.013 nM |  | 0.001 to 0.999 nM | 0.001 to 0.999 nM | 0.001 to 0.999 nM |  |
| CC[C@H](C)[C@H](NC(=O)OC)C(=O)N1C[C@@H](COC)C[C@H]1c1nc2ccc3cc4c(cc3c2[nH]1)OCc1cc(-c2cnc([C@@H]3CC[C@H](C)N3C(=O)[C@@H](NC(=O)OC)C(C)C)[nH]2)ccc1-4 [Example 623] | 0.001 to 0.999 nM | 0.006 nM |  | 0.001 to 0.999 nM | 0.001 to 0.999 nM | 0.001 to 0.999 nM |  |
| COC(=O)N[C@H](C(=O)N1C[C@@H](COC(F)F)C[C@H]1c1nc2ccc3cc4c(cc3c2[nH]1)OCc1cc(-c2cnc([C@@H]3CC[C@H](C)N3C(=O)[C@@H](NC(=O)OC)C(C)C)[nH]2)ccc1-4)C(C)C [Example 631] | 0.001 to 0.999 nM | 0.006 nM |  | 0.001 to 0.999 nM | 0.001 to 0.999 nM | 0.001 to 0.999 nM | > 5 nM |
| COC(=O)N[C@H](C(=O)N1C[C@@H](COC(F)F)C[C@H]1c1ncc(-c2ccc3c(c2)COc2cc4c(ccc5nc([C@@H]6CC[C@H](C)N6C(=O)[C@@H](NC(=O)OC)C(C)C)[nH]c54)cc2-3)[nH]1)C(C)C [Example 632] | 0.001 to 0.999 nM | 0.008 nM |  | 0.001 to 0.999 nM | 0.001 to 0.999 nM | 0.001 to 0.999 nM |  |
| COC[C@H]1C[C@@H](c2ncc(-c3ccc4c(c3)COc3cc5c(ccc6nc([C@@H]7C[C@H](COC(F)F)CN7C(=O)[C@@H](NC(=O)OC)C(C)C)[nH]c65)cc3-4)[nH]2)N(C(=O)[C@@H](NC(=O)OC)C(C)C)C1 [Example 634] | 0.001 to 0.999 nM | 0.015 nM |  | 0.001 to 0.999 nM | 0.001 to 0.999 nM | 0.001 to 0.999 nM |  |
| CC[C@H](C)[C@H](NC(=O)OC)C(=O)N1[C@@H](C)CC[C@H]1c1ncc(-c2ccc3c(c2)COc2cc4c(ccc5nc([C@@H]6C[C@H](COC)CN6C(=O)[C@@H](NC(=O)OC)C(C)C)[nH]c54)cc2-3)[nH]1 [Example 638] | 0.001 to 0.999 nM | 0.009 nM |  | 0.001 to 0.999 nM | 0.001 to 0.999 nM | 0.001 to 0.999 nM |  |
| CCC(C)[C@H](NC(=O)OC)C(=O)N1C[C@@H](COC)C[C@H]1c1nc2ccc3cc4c(cc3c2[nH]1)OCc1cc(-c2cnc([C@@H]3C[C@H](C)CN3C(=O)[C@@H](NC(=O)OC)[C@@H](C)CC)[nH]2)ccc1-4 (stereo partly drawn) [Example 640] | 0.001 to 0.999 nM | 0.015 nM |  | 0.001 to 0.999 nM | 0.001 to 0.999 nM | 0.001 to 0.999 nM |  |
| CC[C@H](C)[C@H](NC(=O)OC)C(=O)N1C[C@@H](C)C[C@H]1c1ncc(-c2ccc3c(c2)COc2cc4c(ccc5nc([C@@H]6C[C@H](COC)CN6C(=O)[C@@H](NC(=O)OC)[C@@H](C)OC)[nH]c54)cc2-3)[nH]1 [Example 641] | 0.001 to 0.999 nM | 0.03 nM |  | 0.001 to 0.999 nM | 0.001 to 0.999 nM | 0.001 to 0.999 nM |  |
| CC[C@H](C)[C@H](NC(=O)OC)C(=O)N1C[C@@H](C)C[C@H]1c1ncc(-c2ccc3c(c2)COc2cc4c(ccc5nc([C@@H]6C[C@H](COC)CN6C(=O)[C@@H](NC(=O)OC)C(C)C)[nH]c54)cc2-3)[nH]1 [Example 642] | 0.001 to 0.999 nM | 0.014 nM |  | 0.001 to 0.999 nM | 0.001 to 0.999 nM | 0.001 to 0.999 nM |  |
